From US11667675B2, “MASP inhibitory compounds and uses thereof” (Bayer Aktiengesellschaft, priority 2019, dated 2023) come the findings set out here.

pIC50: −log10 of the molar value. Like-named read-outs stand apart in the source and are kept apart here. Bridge positions count the residues as written; N and C are the ends. Square brackets hold non-standard residues; d marks the D form. Peptide text beside a SMILES is read from it. Pro(4-spirocPr) = O=C(O)[C@@H]1CC2(CC2)CN1; Oic = O=C(O)[C@@H]1C[C@@H]2CCCC[C@@H]2N1; tBuAla = CC(C)(C)C[C@H](N)C(=O)O; Pen = CC(C)(S)[C@H](N)C(=O)O; ΔPro = O=C(O)[C@@H]1C=CCN1; Sar = CNCC(=O)O

For one assay, the target named is T1, human MASP1 (Homo sapiens, UniProt P48740).
T1 construct: Ig-kappa secretion signal (N, cleaved yes); made in house; host or cells: HEK293 (ATCC No. CRL-1573)
T1 sequence (P48740 297-448): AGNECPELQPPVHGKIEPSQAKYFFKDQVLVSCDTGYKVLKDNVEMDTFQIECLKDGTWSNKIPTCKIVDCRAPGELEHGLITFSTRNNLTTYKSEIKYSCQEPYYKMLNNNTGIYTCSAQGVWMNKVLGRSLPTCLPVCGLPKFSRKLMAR
T1 sequence (P48740 449-699): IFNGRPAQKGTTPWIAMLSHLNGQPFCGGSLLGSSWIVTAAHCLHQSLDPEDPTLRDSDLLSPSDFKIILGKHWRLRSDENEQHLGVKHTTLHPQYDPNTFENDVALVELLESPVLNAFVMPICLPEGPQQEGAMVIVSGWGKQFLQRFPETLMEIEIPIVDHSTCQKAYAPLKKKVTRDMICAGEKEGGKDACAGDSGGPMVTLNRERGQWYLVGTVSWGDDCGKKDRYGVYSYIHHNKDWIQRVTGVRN
Nature of the assay: Biochemical human MASP1 assay (FRET substrate). The conditions noted are these: average IC50. The source says: (§1) 2.1 Recombinant Expression and Protein Production of Recombinant Human MASP1 and MASP2 Active Proteases.
(§2) The MASP1 or MASP2 expression vectors were transfected into the HEK293 (ATCC No. CRL-1573) cell line using Lipofectamine LTX® Reagent (Thermo-Fischer), as described by the manufacturer. […] The MASP1 and MASP2 proteins were purified from the conditioned media by affinity chromatography on Ni-NTA Superflow resin (Qiagen) as described by the manufacturer.
2.2 Biochemical Human MASP1 Assay
(§3) Recombinant human MASP1 enzyme produced in the HEK 293 cells was diluted in the reaction buffer (50 mM HEPES pH 8,0; 100 mM NaCl; 0.01% CHAPS; 0.5 mM Gluthathione) to the concentration of 20 nM and 25 μl was transferred into each single well of 384-well white microtiter plate (Greiner Bio One 781075). 1 μl of the inhibitor compound solution (dissolved in DMSO, at the corresponding concentration) or pure DMSO as a control was added to the same wells. […] The microtiter plate was incubated for 60-120 min at the temperature of 32 C. The increase of fluorescence intensity was measured in appropriate fluorescence plate reader (e.g. TECAN Ultra) using excitation wavelength of 320 nm and emission wavelength of 420 nm. IC50 values were calculated from percentage of inhibition of human MASP1 activity as a function of test compound concentration.

In a further assay the test system is Human C3-[…]. Briefly: C3 deposition assay, human serum on mannan-coated plates. In kind it is biochemical. As to the method:
3. C3 Deposition Assay (Human, Rat, Mouse, Dog, Mini-Pig)
The C3 deposition assay was conducted essentially as described (reference). Multi well plates (Greiner-Nunc 384 Maxi Sorp #464718) were coated over night with Mannan from Saccharomyces cerevisiae (Sigma M7504, 10 μg/mL in 0.05 M carbonate-bicarbonate buffer, pH 9.6) at 4° C. Wells were washed three times with TBS and subsequently incubated for 2 hours with 50 μL of 1% bovine serum albumin (BSA) in Tris-buffered saline (TBS) at 37° C. in order to block non-specific binding. After this step and each of the following incubation steps wells were washed three times with C3 wash buffer (TBS; 0.05% Tween 20; 5 mM CaCl2). […] When appropriately developed the color reaction was stopped by addition of 25 μL of stop solution (Sigma S5814) and quantified on a photometer by measuring absorption at a wavelength of 450 nm. Antibodies were diluted in C3 wash buffer supplemented with 0.5% BSA.

The target of the next assay is T2, human MASP2 (Homo sapiens, UniProt O00187).
T2 construct: Ig-kappa secretion signal (N, cleaved yes); made in house; host or cells: HEK293 (ATCC No. CRL-1573)
T2 sequence (O00187 297-444): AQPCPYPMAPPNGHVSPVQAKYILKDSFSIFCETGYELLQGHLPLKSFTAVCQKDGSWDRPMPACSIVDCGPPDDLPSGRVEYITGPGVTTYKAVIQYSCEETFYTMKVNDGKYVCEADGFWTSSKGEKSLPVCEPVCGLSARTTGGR
T2 sequence (O00187 445-686): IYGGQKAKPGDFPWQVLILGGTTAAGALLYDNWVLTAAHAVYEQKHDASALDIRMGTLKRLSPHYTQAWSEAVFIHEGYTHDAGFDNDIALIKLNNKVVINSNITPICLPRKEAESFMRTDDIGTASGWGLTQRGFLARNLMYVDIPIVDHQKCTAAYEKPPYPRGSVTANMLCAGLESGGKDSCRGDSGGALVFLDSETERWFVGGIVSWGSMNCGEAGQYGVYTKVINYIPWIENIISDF
Briefly: Biochemical human MASP2 assay (FRET substrate). Conditions: average IC50.
From the text: as §1, §2
2.3 Biochemical Human MASP2 Assay
as §3, with “MASP2” for “MASP1”, “340” for “320”, “490” for “420”

A further assay addresses T3, rat MASP1 (Rattus norvegicus, UniProt Q8CHN8).
T3 construct: Ig-kappa secretion signal (N, cleaved yes); made in house; host or cells: HEK293 (ATCC No. CRL-1573)
T3 sequence (Q8CHN8 302-453 limits assumed): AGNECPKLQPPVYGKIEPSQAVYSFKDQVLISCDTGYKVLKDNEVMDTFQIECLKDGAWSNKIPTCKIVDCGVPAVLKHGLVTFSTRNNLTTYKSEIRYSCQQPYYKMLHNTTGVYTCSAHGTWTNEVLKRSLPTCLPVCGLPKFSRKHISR
T3 sequence (Q8CHN8 454-704 limits assumed): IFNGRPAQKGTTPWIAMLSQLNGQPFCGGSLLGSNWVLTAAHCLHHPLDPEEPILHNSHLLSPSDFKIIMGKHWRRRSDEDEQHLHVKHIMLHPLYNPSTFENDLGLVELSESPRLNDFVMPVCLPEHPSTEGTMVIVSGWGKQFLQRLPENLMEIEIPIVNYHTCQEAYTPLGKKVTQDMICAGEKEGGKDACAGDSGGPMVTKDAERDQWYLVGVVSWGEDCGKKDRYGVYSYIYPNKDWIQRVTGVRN
Briefly: Biochemical rat MASP1 assay (FRET substrate). Conditions: average IC50; recombinant rat MASP1, FRET substrate. The source says:
4. Biochemical Rat MASP-1 and MASP-2 Assay
4.1 Recombinant Expression and Protein Production of Recombinant Human and Rat MASP1 and MASP2 Active Proteases.
A truncated cDNA sequence of rat MASP1 encoding the fragment corresponding to the amino acids 302-704 with an C-terminal His Tag and N-terminal Ig-kappa secretion signal (SEQ ID No: 4) was subcloned into the mammalian expression vector pcDNA3.1 (Invitrogen).
The MASP1 or MASP2 expression vectors were transfected into the HEK293 (ATCC No. CRL-1573) cell line using Lipofectamine LTX® Reagent (Thermo-Fischer), as described by the manufacturer. The mature form of the recombinant rat MASP1 and MASP2 proteases were secreted into the culture medium. The MASP1 and MASP2 proteins were purified from the conditioned media by affinity chromatography on Ni-NTA Superflow resin (Qiagen) as described by the manufacturer.
4.2 Biochemical Rat MASP1 Assay.
Recombinant rat MASP1 enzyme produced in the HEK 293 cells was diluted in the reaction buffer (50 mM HEPES pH 8,0; 100 mM NaCl; 0.01% CHAPS; 0.5 mM Gluthathione) to the concentration of 4 nM and 25 μl was transferred into each single well of 384-well white microtiter plate (Greiner Bio One 781075). 1 μl of the inhibitor compound solution (dissolved in DMSO, at the corresponding concentration) or pure DMSO as a control was added to the same wells. The enzymatic reaction was initiated by addition of 25 μl of 40 μM solution of the FRET substrate Dabcyl-[…]-Glu(Edans)-NH2 (SEQ ID NO: 8); (Dabcyl—4-((4-(dimethylamino)phenyl)azo)benzoic acid; Edans—5-[(2-Aminoethyl) amino]naphthalene-1-sulfonyl; custom synthesis by Jerini Peptide Technologies, Berlin) in the reaction buffer. The microtiter plate was incubated for 60-120 min at the temperature of 32 C. The increase of fluorescence intensity was measured in appropriate fluorescence plate reader (e.g. TECAN Ultra) using excitation wavelength of 340 nm and emission wavelength of 490 nm. IC50 values were calculated from percentage of inhibition of rat […] activity as a function of test compound concentration.

Setting [1] is: average IC50, read-out: Human C3-DEPOSITION SERUM IC50.

For the compound `CC[C@H](C)[C@H](NC(=O)[C@@H]1CSSC[C@H](NC(=O)[C@@H](NC(=O)[C@@H](N)C2CCOCC2)[C@@H](C)CC)C(=O)N[C@@H](CO)C(=O)N[C@@H](CCCNC(=N)N)C(=O)N[C@@H](CO)C(=O)N[C@@H](CC(C)C)C(=O)N2CCC[C@H]2C(=O)N2[C@@H](C[C@@H]3CCCC[C@@H]32)C(=O)N[C@@H]([C@@H](C)CC)C(=O)N1)C(=O)O` (single isomer, unassigned) [Example 184], the pIC50 (as a rule, −log10 of the IC50, conventionally taken in molar units) is 8.33 on human MASP1; 7.37 in the assay with Human C3-[…] (average IC50, read-out: Human C3-[…] IC50); 6.70 against human MASP2.
With `CC[C@H](C)[C@H](NC(=O)[C@H](C)N)C(=O)N[C@H]1CSSC(C)(C)[C@@H](C(=O)N[C@H](C(=O)N2CCC[C@H]2C(=O)N[C@@H](CC(=O)O)C(N)=O)[C@@H](C)CC)NC(=O)[C@H]([C@@H](C)CC)NC(=O)[C@@H]2CC3(CC3)CN2C(=O)[C@@H]2CCCN2C(=O)[C@H](CC(C)(C)C)NC(=O)[C@H](CO)NC(=O)[C@H](CCCNC(=N)N)NC(=O)[C@H](CO)NC1=O` [Example 45, AI-C+SRS-((tBu)A)-P-((6S)-5-Azaspiro[2.4]heptane-6-carboxylic acid)-I(Pen)+IPD-NH2] (H-AICSRS[tBuAla]P[Pro(4-spirocPr)]I[Pen]IPD-NH2; disulfide 3-11), the pIC50 against human MASP1 was 8.74; on rat MASP1, 7.40; in the assay with Human C3-[…] (setting [1]), 7.73; on human MASP2, 7.61.
Turning to `CC[C@H](C)[C@@H]1NC(=O)[C@@H]2CCCN2C(=O)[C@@H]2CCCN2C(=O)[C@H](CC(C)(C)C)NC(=O)[C@H](CO)NC(=O)[C@H](CCCNC(=N)N)NC(=O)[C@H](CO)NC(=O)[C@@H](NC(=O)[C@@H](NC(=O)C(C)(C)CN)[C@@H](C)CC)CSSC(C)(C)[C@@H](C(=O)N[C@H](C(=O)N2CCC[C@H]2C(=O)N[C@@H](CC(=O)O)C(N)=O)[C@@H](C)CC)NC1=O` [Example 166, (3-Amino-2,2-dimethylpropionic acid)-IC+SRS-((tBu)A)-PPI-(Pen)+IPD-NH2], the pIC50 at human MASP1 is 8.38; with Human C3-[…] (setting [1]) it was 7.48.
`CC[C@H](C)[C@H](NC(=O)[C@H](C)N)C(=O)N[C@H]1CSSC(C)(C)[C@@H](C(=O)N[C@H](C(=O)N2CCC[C@H]2C(=O)N[C@@H](CC(=O)O)C(=O)O)[C@@H](C)CC)NC(=O)[C@H]([C@@H](C)CC)NC(=O)[C@@H]2C[C@@H]3CCCC[C@@H]3N2C(=O)[C@@H]2C=CCN2C(=O)[C@H](CC(C)C)NC(=O)[C@H](CO)NC(=O)[C@H](CCCNC(=N)N)NC(=O)[C@H](CO)NC1=O` [Example 237] (H-AICSRSL[ΔPro][Oic]I[Pen]IPD-OH; disulfide 3-11): the pIC50 was 8.03 on human MASP1, 7.83 with Human C3-[…] (setting [1]) and 7.19 at human MASP2.
In the same order, the values of `CC[C@H](C)[C@H](NC(=O)CNC)C(=O)N[C@H]1CSSC(C)(C)[C@@H](C(=O)N[C@H](C(=O)N2CCC[C@H]2C(N)=O)[C@@H](C)CC)NC(=O)[C@H]([C@@H](C)CC)NC(=O)[C@@H]2C[C@@H]3CCCC[C@@H]3N2C(=O)[C@@H]2CCCN2C(=O)[C@H](CC(C)C)NC(=O)[C@H](CO)NC(=O)[C@H](CCCNC(=N)N)NC(=O)[C@H](CO)NC1=O` [Example 376] (H-[Sar]ICSRSLP[Oic]I[Pen]IP-NH2; disulfide 3-11) are 8.96, 7.86 and 7.46.
Take “(2-Hydroxyacetyl)-IC+SRS-((tBu)A)-PPI-(Pen)+IPD-NH2 [Example 300]”: the pIC50 with Human C3-[…] (setting [1]) is 7.22.
On to “((N-Me)G)-IC+SRSLP-(Oic)-I-(Pen)+I-((5-Azaspiro[2.4]heptane-1-carboxylic acid)OH [Example 164]”, for which the pIC50 in the assay on Human C3-[…] (setting [1]) is 7.09.
Turning to “((N-Me)G)-IC+SRSLP-(Oic)-I-(Pen)+IPD-NH2 [Example 165]”, the pIC50 in the assay on Human C3-[…] (setting [1]) was 7.44.
The same measure, in the same setting: the same measure for “AIC+SRS-((tBu)A)-PPI-((N-Me)C)+IPD-NH2 (HCl Salt) [Example 30]”: 7.44.
On the same count and under the same terms, the same measure for “AIC+SRSLP-(Oic)-I-(Pen)+IPN-OH [Example 418]”: 7.27; for “IC+SRSLP-(Oic)-I-(Pen)+IPD-OH [Example 347]”: 6.82.
Same read-out and setting: under “N-[(5aS,11S,14S,17S,20S,23R,28R,31S,33aS)-31-[(2S)-butan-2-yl]-17-(3-carbamimidamidopropyl)-11-(2,2-dimethylpropyl)-14,20-bis(hydroxymethyl)-27,27-dimethyl-23-({N-[(morpholin-4-yl)acetyl]-L-isoleucyl}amino)-5,10,13,16,19,22,30,33-octaoxooctacosahydro-1H,5H,10H-dipyrrolo[2,1-j:2′,1′][1,2,5,8,11,14,17,20,23,26]dithiaoctaazacyclononacosine-28-carbonyl]-L-isoleucyl-L-prolyl-L-alpha-asparagine [Example 283]” stands 7.16.
